Experimental findings from ChEMBL document CHEMBL1949643, “Dactylomelatriol, a biogenetically intriguing omphalane-derived marine sesquiterpene” (2012) are described below.

Assay [1] concerns Bacillus cereus. In words: Antimicrobial activity against Bacillus cereus ATCC 21772 by broth macrodilution method. The assay is classed as functional.
Assay [2] deals with Candida albicans. In words: Antifungal activity against Candida albicans SC5314 by broth macrodilution method. The class given is functional.

Take `C=C1C[C@H](O)[C@H](Br)C(C)(C)[C@@]12CCC(C)=C(Cl)C2` [ELATOL]: the minimal inhibitory concentration (MIC) in assay [1] was above 50 µg/mL. `C=C1C[C@@H](O)[C@@H](Br)C(C)(C)[C@]12CC[C@@](C)(Br)[C@H](Cl)C2` [OBTUSOL]: the MIC in assay [2] and in assay [1] was above 50 µg/mL in each case.

A word on the MIC: it is the lowest concentration found to suppress growth. Read a low MIC as a more susceptible organism.
